Results: ChEMBL document CHEMBL4725390, “Asymmetrically Substituted Quadruplex-Binding Naphthalene Diimide Showing Potent Activity in Pancreatic Cancer Models” (ACS Med Chem Lett, 2020)
The source made the active and inactive calls. No cut-off for these calls is given here.

Experiments:
MIA PaCa-2 [1] = test: Antitumor activity against human MIAPaCa2 cells xenografted in mouse assessed as change in tumor volume at 1 mg/kg, iv administered once per week for 28 days and measured at day 53 by Caliper method relative to control; assay type: functional; details: time 28 day
MIA PaCa-2 [2] = test: Downregulation of cell cycle associated gene expression in human MIAPaCa2 cells at 40 nM after 24 hrs by RNA sequencing analysis; assay type: functional, cell-based
Mus musculus [3] = test: Up regulation of cleaved PARP protein expression in mouse xenografted with human MIAPaCa2 cells at 1 mg/kg, iv administered once per week for 28 days measured on day 28 by Western blot analysis; assay type: functional, organism-based; details: time 28.0 day
[4] = Downregulation of MAPK11 mRNA expression in human MIAPaCa2 cells at 40 nM after 6 hrs by RNA sequencing analysis relative to control; assay type: functional, MIA PaCa-2
[5] = Downregulation of DVL1 mRNA expression in human MIAPaCa2 cells at 40 nM after 6 hrs by RNA sequencing analysis relative to control; assay type: functional, MIA PaCa-2
[6] = Downregulation of Bcl2 mRNA expression in human MIAPaCa2 cells at 40 nM after 6 hrs by RNA sequencing analysis relative to control; assay type: functional, MIA PaCa-2
MIA PaCa-2 [7] = test: Potency index, ratio of 2,7-bis(3-morpholinopropyl)-4-((2-(pyrrolidin-1-yl)ethyl)amino)benzo[lmn][3,8]phenanthroline-1,3,6,8(2H,7H)-tetraone IC50 to test compound IC50 for human MIAPaCa2 cells measured after 96 hrs by SRB assay; assay type: functional
[8] = Downregulation of GLI1 mRNA expression in human MIAPaCa2 cells at 40 nM after 6 hrs by RNA sequencing analysis relative to control; assay type: functional, MIA PaCa-2
PANC-1 = test: Antiproliferative activity against human PANC1 cells assessed as growth inhibition after 96 hrs by SRB assay; assay type: functional
[9] = Downregulation of WNT5B mRNA expression in human MIAPaCa2 cells at 40 nM after 6 hrs by RNA sequencing analysis relative to control; assay type: functional, MIA PaCa-2
[10] = Downregulation of hTERT mRNA expression in human MIAPaCa2 cells at 40 nM after 6 hrs by RNA sequencing analysis relative to control; assay type: functional, MIA PaCa-2
MIA PaCa-2 [11] = test: Antitumor activity against human MIAPaCa2 cells xenografted in mouse assessed as mean tumor volume at 1 mg/kg, iv administered twice per week for 28 days and measured at day 53 by Caliper method (reference value: 1.60 +/- 0.44 cm3); assay type: functional; details: time 28 day
Quadruplex DNA = test: Binding affinity to G4 quadruplex DNA in human PANC1 cells assessed as BG4 foci formation at 800 nM after 6 hrs by immunofluorescence based confocal microscopic analysis; assay type: cell-based; details: PANC-1
[12] = Downregulation of DVL1 mRNA expression in human MIAPaCa2 cells at 40 nM after 24 hrs by RNA sequencing analysis relative to control; assay type: functional, MIA PaCa-2
[13] = AUC (infinity) in mouse xenografted with human MIAPaCa2 cells at 0.96 mg/kg, iv administered as single dose; assay type: ADME, organism-based; parameters: time infinity, route intravenous, dose 0.96 mg/kg; details: in vivo
[14] = Volume of distribution at steady state in mouse xenografted with human MIAPaCa2 cells at 0.96 mg/kg, iv administered as single dose; assay type: ADME, organism-based; details: in vivo, read-out: Vdss
[15] = Half life in rat at 1 mg/kg, iv administered as single dose; assay type: ADME, organism-based; details: in vivo
MIA PaCa-2 [16] = test: Downregulation of hippo signaling pathway related gene expression in human MIAPaCa2 cells at 40 nM after 6 hrs by RNA sequencing analysis; assay type: functional, cell-based
[17] = Toxicity in mouse xenografted with human MIAPaCa2 cells assessed as effect on cardiac clinical signs at 1 mg/kg, iv administered twice per week for 28 days; assay type: organism-based; details: in vivo, 672 h, time 28 day
[18] = Downregulation of AXIN1 mRNA expression in human MIAPaCa2 cells at 40 nM after 6 hrs by RNA sequencing analysis relative to control; assay type: functional, MIA PaCa-2
[19] = Downregulation of GLI1 mRNA expression in human MIAPaCa2 cells at 40 nM after 24 hrs by RNA sequencing analysis relative to control; assay type: functional, MIA PaCa-2
[20] = Apparent volume of distribution in mouse xenografted with human MIAPaCa2 cells at 0.96 mg/kg, iv administered as single dose; assay type: ADME, organism-based; details: in vivo, read-out: Vz
MIA PaCa-2 [21] = test: Downregulation of Rap1 signaling pathway related gene expression in human MIAPaCa2 cells at 40 nM after 6 hrs by RNA sequencing analysis; assay type: functional, cell-based
[22] = Downregulation of MAPK11 mRNA expression in human MIAPaCa2 cells at 40 nM after 24 hrs by RNA sequencing analysis relative to control; assay type: functional, MIA PaCa-2
MIA PaCa-2 [23] = test: Antitumor activity against human MIAPaCa2 cells xenografted in mouse assessed as change in tumor volume at 1 mg/kg, iv administered twice per week for 28 days and measured at day 28 by Caliper method relative to control; assay type: functional; details: time 28 day
MIA PaCa-2 [24] = test: Antitumor activity against human MIAPaCa2 cells xenografted in mouse assessed as mean tumor volume at 1 mg/kg, iv administered once per week for 28 days and measured at day 53 by Caliper method (reference value: 1.60 +/- 0.44 cm3); assay type: functional; details: time 28 day
[25] = Toxicity in mouse xenografted with human MIAPaCa2 cells assessed as drug tolerability at 1 mg/kg, iv administered twice per week for 28 days; assay type: organism-based; details: in vivo, 672 h, time 28 day
CAPAN-1 = test: Antiproliferative activity against human Capan1 cells assessed as growth inhibition after 96 hrs by SRB assay; assay type: functional
[26] = AUC in mouse xenografted with human MIAPaCa2 cells at 0.96 mg/kg, iv administered as single dose; assay type: ADME, organism-based; parameters: dose 0.96 mg/kg; details: in vivo
[27] = Downregulation of Bcl2 mRNA expression in human MIAPaCa2 cells at 40 nM after 24 hrs by RNA sequencing analysis relative to control; assay type: functional, MIA PaCa-2
[28] = Toxicity in mouse xenografted with human MIAPaCa2 cells assessed as effect on cardiac clinical signs at 1 mg/kg, iv administered once per week for 28 days; assay type: organism-based; details: in vivo, 672 h, time 28 day
[29] = Downregulation of APC2 mRNA expression in human MIAPaCa2 cells at 40 nM after 24 hrs by RNA sequencing analysis relative to control; assay type: functional, MIA PaCa-2
Mus musculus [30] = test: Effect on hTERT expression in mouse xenografted with human MIAPaCa2 cells at 1 mg/kg, iv administered twice per week for 28 days and measured on day 28 by Western blot analysis; assay type: functional, organism-based; details: time 28.0 day
Mus musculus [31] = test: Down regulation of MAPK11 expression in mouse xenografted with human MIAPaCa2 cells at 1 mg/kg, iv administered twice per week for 28 days and measured on day 28 by Western blot analysis; assay type: functional, organism-based; details: time 28.0 day
[32] = Downregulation of APC2 mRNA expression in human MIAPaCa2 cells at 40 nM after 6 hrs by RNA sequencing analysis relative to control; assay type: functional, MIA PaCa-2
MIA PaCa-2 [33] = test: Antitumor activity against human MIAPaCa2 cells xenografted in mouse assessed as mean tumor volume at 1 mg/kg, iv administered once per week for 28 days and measured at day 28 by Caliper method (reference value: 0.45 +/- 0.18 cm3); assay type: functional; details: time 28 day
[34] = Toxicity in mouse xenografted with human MIAPaCa2 cells assessed as effect on neuronal clinical signs at 1 mg/kg, iv administered once per week for 28 days; assay type: organism-based; details: in vivo, 672 h, time 28 day

O=C1c2cc(-c3ccc(CN4CCCC4)cc3)c3c4c(cc(NCCN5CCCC5)c(c24)C(=O)N1CCCN1CCOCC1)C(=O)N(CCCN1CCOCC1)C3=O [QN-302]
Activity (MIA PaCa-2 [1]): -89.83%
inhibition (MIA PaCa-2 [2]): Active
Activity (Mus musculus [3]): Active
log2FC [4]: 0.71
log2FC [5]: 1.48
log2FC [6]: 0.58
Ratio IC50 (MIA PaCa-2 [7]): 10
log2FC [8]: 0.66
GI50 (PANC-1): 1.4 nM
log2FC [9]: 2.25
log2FC [10]: 2.29
Activity (MIA PaCa-2 [11]): 0.15 cm3
Activity (Quadruplex DNA): inactive
log2FC [12]: 0.77
AUC(0-inf) [13]: 8270 ng·h/mL
Vd [14]: 1.2 L/kg
half-life [15]: 2160 min
inhibition (MIA PaCa-2 [16]): Active
Activity [17]: Non-Toxic
log2FC [18]: 1.59
log2FC [19]: 1.84
Vd [20]: 6.9 L/kg
inhibition (MIA PaCa-2 [21]): Active
log2FC [22]: 1.72
Activity (MIA PaCa-2 [23]): -86.6%
Activity (MIA PaCa-2 [24]): 0.17 cm3
Activity [25]: Non-Toxic
GI50 (CAPAN-1): 5.9 nM
AUC [26]: 5860 ng·h/mL
log2FC [27]: 1.75
Activity [28]: Non-Toxic
log2FC [29]: 1.06
Activity (Mus musculus [30]): inactive
inhibition (Mus musculus [31]): Active
log2FC [32]: 1.88
Activity (MIA PaCa-2 [33]): 0.08 cm3
Activity [34]: Non-Toxic
